In the supplement of paper PMC10307832:

How the values were obtained:
Assay in all cases: relative viability (nuclei count vs DMSO), 5 days (fraction); higher = more cells survive
Decitabine + Crizotinib = compound: Nc1ncn([C@H]2C[C@H](O)[C@@H](CO)O2)c(=O)n1 [Decitabine] + C[C@@H](Oc1cc(-c2cnn(C3CCNCC3)c2)cnc1N)c1c(Cl)ccc(F)c1Cl [Crizotinib] (partner 1 µM)
Outline: (§1)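 Medians of duplicate plates are given as relative viability. That measure is the nuclei count in treated wells divided by the count in vehicle wells. Counts were taken on 4× images of lung cancer cell lines in 1536-well plates, 5 days after pin-tool dosing the day after seeding with one drug alone or a fixed anchor-drug dose plus five library-drug doses (not always all listed) in √10 steps.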

[1] = compound: O=C(C[C@H]1NCCC[C@@H]1O)Cn1cnc2cc(Br)c(Cl)cc2c1=O (racemic) [Halofuginone] + C[C@]1(O)C[C@@H](c2nc(-c3ccc4ccc(-c5ccccc5)nc4c3)c3c(N)nccn32)C1 [Linsitinib] (partner 1 µM)
Outline: as §1

Cediranib + Vorinostat = compound: COc1cc2c(Oc3ccc4[nH]c(C)cc4c3F)ncnc2cc1OCCCN1CCCC1 [Cediranib] + O=C(CCCCCCC(=O)Nc1ccccc1)NO [Vorinostat] (partner 1 µM)
Outline: as §1

Cediranib + Crizotinib = compound: COc1cc2c(Oc3ccc4[nH]c(C)cc4c3F)ncnc2cc1OCCCN1CCCC1 [Cediranib] + C[C@@H](Oc1cc(-c2cnn(C3CCNCC3)c2)cnc1N)c1c(Cl)ccc(F)c1Cl [Crizotinib] (partner 1 µM)
Outline: as §1

Cell Line | relative viability (Decitabine + Crizotinib; first compound 0.04 µM) | relative viability (Decitabine + Crizotinib; first compound 0.1265 µM) | relative viability (Decitabine + Crizotinib; first compound 0.4 µM) | relative viability (Decitabine + Crizotinib; first compound 1.265 µM) | relative viability (Decitabine + Crizotinib; first compound 4 µM) | relative viability ([1]; first compound 0.001 µM) | relative viability ([1]; first compound 0.003162 µM) | relative viability ([1]; first compound 0.01 µM) | relative viability ([1]; first compound 0.03162 µM) | relative viability ([1]; first compound 0.1 µM) | relative viability (Cediranib + Vorinostat; first compound 0.04 µM) | relative viability (Cediranib + Vorinostat; first compound 0.4 µM) | relative viability (Cediranib + Vorinostat; first compound 1.265 µM) | relative viability (Cediranib + Vorinostat; first compound 4 µM) | relative viability (Cediranib + Crizotinib; first compound 0.04 µM) | relative viability (Cediranib + Crizotinib; first compound 0.4 µM) | relative viability (Cediranib + Crizotinib; first compound 1.265 µM) | relative viability (Cediranib + Crizotinib; first compound 4 µM) | relative viability (Cediranib + Vorinostat; first compound 0.1265 µM) | relative viability (Cediranib + Crizotinib; first compound 0.1265 µM)
LCLC-97TM1 | 0.155 | 0.16 | 0.18 | 0.15 | 0.101 | 0.209 | 0.189 | 0.187 | 0.179 | 0.163 | 0.655 | 0.536 | 0.707 | 1.08 | 0.272 | 0.352 | 0.47 | 0.363 | – | –
NCI-H520 | 0.654 | 0.544 | 0.399 | 0.308 | 0.26 | 0.997 | 0.85 | 0.994 | 0.667 | 0.422 | 0.792 | 0.581 | 0.576 | 0.676 | 0.93 | 0.665 | 0.801 | 0.598 | 0.622 | –
NCI-H1993 | 0.898 | 0.776 | 0.832 | 0.702 | 0.728 | 0.742 | 0.685 | 0.72 | 0.801 | 0.544 | – | 0.727 | 0.567 | 0.688 | 0.968 | 0.886 | 0.865 | 0.858 | 0.633 | 0.902
NCI-H1437 | 0.692 | 0.748 | 0.632 | 0.297 | 0.216 | 1.05 | 1.13 | 0.988 | 0.828 | 0.208 | 0.875 | 0.872 | 0.819 | 0.898 | 0.966 | 0.823 | 0.892 | 0.879 | 0.778 | 0.87
LC-2-ad | 0.391 | 0.371 | 0.34 | 0.262 | 0.283 | 0.843 | 0.796 | 0.763 | 0.818 | 0.264 | 0.678 | 0.669 | 0.825 | 0.705 | 0.462 | 0.366 | 0.474 | 0.419 | 0.625 | 0.425
HARA | 0.774 | 0.745 | 0.63 | 0.379 | 0.352 | 1.02 | 0.981 | 0.79 | 1.02 | 0.828 | 0.549 | 0.489 | 0.64 | 0.519 | 1.07 | 0.991 | 1.02 | 1.03 | 0.315 | 1.15
NCI-H650 | 0.533 | 0.524 | 0.303 | 0.264 | 0.195 | 1.03 | 0.924 | 0.877 | 0.811 | 0.457 | 0.363 | 0.526 | 0.356 | 0.454 | 0.7 | 0.612 | 0.835 | 0.639 | 0.319 | 0.757
NCI-H1975 | 0.491 | 0.355 | 0.312 | 0.305 | 0.28 | 1.09 | 0.924 | 0.976 | 0.497 | 0.15 | 0.757 | 0.704 | 0.669 | 0.785 | 1.16 | 0.92 | 1.02 | 0.913 | 0.716 | 1.05
NCI-H2085 | 0.578 | 0.432 | 0.519 | 0.399 | 0.388 | 0.863 | 1.01 | 0.864 | 0.898 | 0.627 | 0.832 | 0.746 | 0.832 | 0.769 | 0.888 | 0.876 | 0.813 | 0.868 | 0.721 | 0.927
NCI-H522 | – | – | – | – | – | – | – | – | – | – | 0.842 | 0.925 | 0.817 | 0.811 | – | – | – | – | 0.472 | –
NCI-H1563 | 0.947 | 0.861 | 0.908 | 0.905 | 0.799 | 1.3 | 1.3 | 0.963 | 0.636 | 0.603 | – | – | – | – | 0.919 | 0.854 | 0.833 | 0.894 | – | 0.866
NCI-H1703 | 0.397 | 0.419 | 0.214 | 0.263 | 0.134 | 0.944 | 1.03 | 0.617 | 0.559 | 0.353 | – | – | – | – | 0.721 | 0.188 | 0.214 | 0.191 | – | 0.707
NCI-H2170 | 0.942 | 0.875 | 0.79 | 0.463 | 0.395 | – | – | – | – | – | 0.88 | 0.793 | 0.718 | 0.962 | 1.45 | 1.05 | 1.13 | 1.37 | – | 1.42
NCI-H1792 | 0.97 | 1.01 | 0.948 | 0.501 | 0.553 | 0.602 | 0.501 | 0.642 | 0.569 | 0.523 | – | – | – | – | 1.03 | 0.915 | 0.979 | 0.882 | – | 1.03
NCI-H1648 | – | – | – | – | – | – | – | – | – | – | 0.569 | 0.511 | 0.271 | 0.425 | – | – | – | – | 0.474 | –
EBC-1 | 0.146 | 0.176 | 0.193 | 0.144 | 0.148 | 0.959 | 1.07 | 0.784 | 0.656 | 0.251 | – | – | – | – | 0.17 | 0.21 | 0.201 | 0.172 | – | 0.213
NCI-H1650 | 0.838 | 0.603 | 0.331 | 0.326 | 0.241 | – | – | – | – | – | 0.629 | 0.599 | 0.548 | 0.679 | 1.29 | 0.794 | 0.953 | 0.879 | 0.546 | 1.05
NCI-H1395 | – | – | – | – | – | 1.17 | 1.62 | 1.2 | 0.961 | 0.776 | 0.686 | 0.601 | 0.645 | 0.711 | – | – | – | – | 0.689 | –
NCI-H1299 | 0.979 | 0.991 | 0.956 | 0.85 | 0.856 | 1.01 | 1.23 | 0.972 | 0.955 | 0.732 | – | – | – | – | 0.982 | 0.957 | 0.92 | 0.929 | – | 0.945
A549 | 0.498 | 0.658 | 0.348 | 0.13 | 0.102 | 0.653 | 0.556 | 0.612 | 0.559 | 0.286 | – | – | – | – | 0.805 | 0.679 | 0.773 | 0.605 | – | 0.768
NCI-H1793 | – | – | – | – | – | 0.985 | 0.962 | 0.822 | 0.883 | 0.398 | 0.954 | 0.67 | 0.49 | 0.797 | – | – | – | – | 0.679 | –
